Measured values as given in the supplement of paper PMC10307832.

Columns and labels:
Test in all cases: relative viability (nuclei count vs DMSO), 5 days (fraction); higher = more cells survive
[1] = compound: C1COCCN1C2=NC(=NC3=C2OC4=C3C=CC=N4)C5=CC(=CC=C5)NC(=O)C6=CN=C(C=C6)N + N=C(N)NC(=N)NCCc1ccccc1 [Phenformin] (partner 250 µM)
Summary of the method: (§1)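 Lung cancer cell lines, seeded in 1536-well plates, were treated the following day by pin tool with a single drug or with five library-drug doses (not always all listed) in √10 steps on top of a fixed anchor-drug dose. Cells were fixed and nuclei stained in one step after 5 days, and nuclei were counted. Relative viability is the nuclei count for treated wells divided by that for vehicle wells, reported as medians of duplicate plates.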

[2] = compound: Nc1ccccc1NC(=O)c1ccc(CNC(=O)OCc2cccnc2)cc1 [Entinostat] + N=C(N)NC(=N)NCCc1ccccc1 [Phenformin] (partner 250 µM)
Summary of the method: as §1

[3] = compound: Nc1ccccc1NC(=O)c1ccc(CNC(=O)OCc2cccnc2)cc1 [Entinostat] + O=C(c1cc(Cc2n[nH]c(=O)c3ccccc23)ccc1F)N1CCN(C(=O)C2CC2)CC1 [Olaparib] (partner 8 µM)
Summary of the method: as §1

[4] = compound: CN1CCC(CNc2ccc3ncc(-c4cccc(OC(F)(F)F)c4)n3n2)CC1 [SGI-1776] + CS(=O)(=O)CCNCc1ccc(-c2ccc3ncnc(Nc4ccc(OCc5cccc(F)c5)c(Cl)c4)c3c2)o1 [Lapatinib] (partner 2 µM)
Summary of the method: as §1

Row | Cell Line | relative viability ([1]; first compound 0.02 µM) | relative viability ([1]; first compound 0.06325 µM) | relative viability ([1]; first compound 0.2 µM) | relative viability ([1]; first compound 0.6325 µM) | relative viability ([1]; first compound 2 µM) | relative viability ([2]; first compound 0.02 µM) | relative viability ([2]; first compound 0.06325 µM) | relative viability ([2]; first compound 0.2 µM) | relative viability ([2]; first compound 0.6325 µM) | relative viability ([2]; first compound 2 µM) | relative viability ([3]; first compound 0.02 µM) | relative viability ([3]; first compound 0.06325 µM) | relative viability ([3]; first compound 0.2 µM) | relative viability ([3]; first compound 0.6325 µM) | relative viability ([3]; first compound 2 µM) | relative viability ([4]; first compound 0.08 µM) | relative viability ([4]; first compound 0.8 µM) | relative viability ([4]; first compound 2.53 µM) | relative viability ([4]; first compound 8 µM)
1 | ChaGo-K-1 | 0.464 | 0.583 | 0.533 | 0.456 | 0.459 | 0.607 | 0.471 | 0.567 | 0.456 | 0.462 | 0.426 | 0.425 | 0.497 | 0.358 | 0.331 |  |  |  | 
2 | EBC-1 |  |  |  |  |  |  |  |  |  |  | 0.68 | 0.732 | 0.696 | 0.203 | 0.174 | 0.207 | 0.214 | 0.182 | 0.138
3 | IA-LM |  |  |  |  |  |  |  |  |  |  | 0.807 | 0.845 | 0.871 | 0.693 | 0.536 | 0.923 | 0.726 |  | 0.72
4 | LCLC-103H | 0.328 | 0.34 | 0.33 | 0.343 | 0.252 | 0.36 | 0.379 | 0.331 | 0.265 | 0.229 | 0.748 | 0.738 | 0.684 | 0.528 | 0.447 |  |  |  | 
5 | NCI-H441 | 0.798 | 0.868 | 0.731 | 0.833 | 0.527 | 0.679 | 1.03 | 0.757 | 0.397 | 0.184 | 0.625 | 0.467 | 0.317 | 0.18 | 0.113 |  |  |  | 
6 | NCI-H522 | 0.638 | 0.701 | 0.63 | 1.49 | 0.599 | 0.69 | 0.572 | 0.695 | 0.801 | 0.577 | 0.58 | 0.713 | 0.582 | 0.686 | 0.494 |  |  |  | 
7 | NCI-H1299 |  |  |  |  |  |  |  |  |  |  | 1.03 | 0.923 | 0.965 | 0.702 | 0.585 | 1.02 | 0.991 | 0.99 | 0.95
8 | NCI-H1563 | 0.647 | 0.636 | 0.654 | 0.593 | 0.532 | 0.76 | 0.646 | 0.714 | 0.669 | 0.607 |  |  |  |  |  | 0.869 | 0.939 | 1.02 | 0.825
9 | NCI-H1623 | 0.634 | 0.587 | 0.6 | 0.562 | 0.407 | 0.663 | 0.623 | 0.556 | 0.489 | 0.422 |  |  |  |  |  |  |  |  | 
10 | NCI-H1648 |  |  |  |  |  |  |  |  |  |  | 0.769 | 0.624 | 0.673 | 0.615 | 0.512 |  |  |  | 
11 | NCI-H1703 |  |  |  |  |  |  |  |  |  |  | 0.388 | 0.435 | 0.545 | 0.7 | 0.454 | 1.3 | 0.922 | 0.608 | 0.257
12 | NCI-H2342 | 0.651 | 0.564 | 0.565 | 0.695 | 0.576 | 0.6 | 0.639 | 0.518 | 0.584 | 0.468 | 0.401 | 0.477 | 0.447 | 0.356 | 0.308 |  |  |  | 
13 | SW 900 | 0.425 | 0.674 | 0.557 | 0.376 | 0.345 | 0.653 | 0.759 | 0.686 | 0.369 | 0.306 | 0.857 | 0.815 | 0.902 | 0.616 | 0.355 |  |  |  | 
